pIC50: −log10 of the molar value.
Tests used:
Assay in all cases: cells
Conditions in all cases: Homo sapiens
CTB-1 = assay type: functional, cell-based
Description: SANGER: Inhibition of human CTB-1 cell growth in a cell viability assay.

CTV-1 = assay type: functional, cell-based;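 also: growth inhibition of the cell line, read out with a cell viability assay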
Description: SANGER: Inhibition of human CTV-1 cell growth in a cell viability assay.

Calu-6 = assay type: functional, cell-based;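 also: growth of human Calu-6 cells, read out by a cell viability assay, IC50 marking inhibition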
Description: SANGER: Inhibition of human Calu-6 cell growth in a cell viability assay.

D283 Med = assay type: functional, cell-based
Description: SANGER: Inhibition of human D-283MED cell growth in a cell viability assay.

D-502MG = assay type: functional, cell-based
Description: SANGER: Inhibition of human D-502MG cell growth in a cell viability assay.

DMS-114 = assay type: functional, cell-based
DMS-79 = assay type: functional, cell-based;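 also: growth inhibition measured with a cell viability assay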
Description: SANGER: Inhibition of human DMS-79 cell growth in a cell viability assay.

DU-4475 = assay type: functional, cell-based
Description: SANGER: Inhibition of human DU-4475 cell growth in a cell viability assay.

EC-GI-10 = assay type: functional, cell-based
Description: SANGER: Inhibition of human EC-GI-10 cell growth in a cell viability assay.

ES3 = assay type: functional, cell-based;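 also: growth inhibition of ES3 cells, read out with a cell viability assay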
Description: SANGER: Inhibition of human ES3 cell growth in a cell viability assay.

ES5 = assay type: functional, cell-based;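 also: growth inhibition of human ES5 cells, read out by a cell viability assay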
Description: SANGER: Inhibition of human ES5 cell growth in a cell viability assay.

EW-24 = assay type: functional, cell-based;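 also: human EW-24 cancer cell line, growth inhibition read out via a cell viability assay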
Description: SANGER: Inhibition of human EW-24 cell growth in a cell viability assay.

EOL1 = assay type: functional, cell-based;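 also: growth inhibition of EoL-1 cells, read out by a cell viability assay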
Description: SANGER: Inhibition of human EoL-1-cell cell growth in a cell viability assay.

GCIY = assay type: functional, cell-based;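 also: growth inhibition of the human GCIY cell line, read out by a cell viability assay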
Description: SANGER: Inhibition of human GCIY cell growth in a cell viability assay.

GOTO = assay type: functional, cell-based;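 also: growth inhibition of GOTO cells, read out by a cell viability assay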
Description: SANGER: Inhibition of human GOTO cell growth in a cell viability assay.

HCC1187 = assay type: functional, cell-based;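 also: growth inhibition of HCC1187 cells, read out with a cell viability assay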
Description: SANGER: Inhibition of human HCC1187 cell growth in a cell viability assay.

HCE-4 = assay type: functional, cell-based;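 also: cell viability assay measuring inhibition of growth in the human HCE-4 cell line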
Description: SANGER: Inhibition of human HCE-4 cell growth in a cell viability assay.

HCE-T = assay type: functional, cell-based;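 also: cell viability assay read-out, reporting inhibition of HCE-T cell growth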
Description: SANGER: Inhibition of human HCE-T cell growth in a cell viability assay.

HOP-62 = assay type: functional, cell-based;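 also: cell growth inhibition determined with a viability assay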
Description: SANGER: Inhibition of human HOP-62 cell growth in a cell viability assay.

HuTu80 = assay type: functional, cell-based, HUTU-80;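 also: growth inhibition of HuTu80 human cells, determined with a cell viability readout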
Description: SANGER: Inhibition of human HUTU-80 cell growth in a cell viability assay.

JVM-2 = assay type: functional, cell-based;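 also: growth inhibition of JVM-2 cells determined by a cell viability assay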
Description: SANGER: Inhibition of human JVM-2 cell growth in a cell viability assay.

JVM-3 = assay type: functional, cell-based;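 also: growth inhibition of human JVM-3 cells, read out with a cell viability assay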
Description: SANGER: Inhibition of human JVM-3 cell growth in a cell viability assay.

KALS-1 = assay type: functional, cell-based;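 also: growth inhibition of KALS-1 cells, determined with a cell viability assay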
Description: SANGER: Inhibition of human KALS-1 cell growth in a cell viability assay.

KARPAS-45 = assay type: functional, cell-based;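 also: inhibition of cell line growth, read out through a viability assay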
Description: SANGER: Inhibition of human KARPAS-45 cell growth in a cell viability assay.

KG-1 = assay type: functional, cell-based;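 also: growth inhibition of KG-1 cells, read out by a cell viability assay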
Description: SANGER: Inhibition of human KG-1 cell growth in a cell viability assay.

KGN = assay type: functional, cell-based;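 also: growth inhibition of KGN cells, read out with a cell viability assay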
Description: SANGER: Inhibition of human KGN cell growth in a cell viability assay.

KINGS-1 = assay type: functional, cell-based;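 also: cell viability assay measuring suppression of KINGS-1 cell growth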
Description: SANGER: Inhibition of human KINGS-1 cell growth in a cell viability assay.

KLE = assay type: functional, cell-based;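 also: growth inhibition of human KLE cells, read out with a cell viability assay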
Description: SANGER: Inhibition of human KLE cell growth in a cell viability assay.

KNS-42 = assay type: functional, cell-based;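 also: growth inhibition of KNS-42 cells, read out with a cell viability assay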
Description: SANGER: Inhibition of human KNS-42 cell growth in a cell viability assay.

KP-N-YS = assay type: functional, cell-based;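 also: cell viability assay measuring inhibition of cell line growth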
Description: SANGER: Inhibition of human KP-N-YS cell growth in a cell viability assay.

KS-1 = assay type: functional, cell-based;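 also: growth inhibition of KS-1 cells, read out with a cell viability assay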
Description: SANGER: Inhibition of human KS-1 cell growth in a cell viability assay.

KURAMOCHI = assay type: functional, cell-based;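 also: growth inhibition of KURAMOCHI cells, read out with a cell viability assay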
Description: SANGER: Inhibition of human KURAMOCHI cell growth in a cell viability assay.

L-428 = assay type: functional, cell-based
Description: SANGER: Inhibition of human L-428 cell growth in a cell viability assay.

LB1047-RCC = assay type: functional, cell-based;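 also: inhibition of cell growth, determined with a cell viability assay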
Description: SANGER: Inhibition of human LB1047-RCC cell growth in a cell viability assay.

LS-1034 = assay type: functional, cell-based
Description: SANGER: Inhibition of human LS-1034 cell growth in a cell viability assay.

MHH-PREB-1 = assay type: functional, cell-based;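 also: cell viability assay measuring inhibition of proliferation of human MHH-PREB-1 cells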
Description: SANGER: Inhibition of human MHH-PREB-1 cell growth in a cell viability assay.

ML-2 = assay type: functional, cell-based;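 also: growth inhibition of ML-2 cells, measured with a cell viability readout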
Description: SANGER: Inhibition of human ML-2 cell growth in a cell viability assay.

MN-60 = assay type: functional, cell-based;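 also: growth inhibition of the MN-60 cell line, determined with a cell viability assay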
Description: SANGER: Inhibition of human MN-60 cell growth in a cell viability assay.

MS-1 = assay type: functional, cell-based
Description: SANGER: Inhibition of human MS-1 cell growth in a cell viability assay.

MSTO-211H = assay type: functional, cell-based
Description: SANGER: Inhibition of human MSTO-211H cell growth in a cell viability assay.

NCI-H1155 = assay type: functional, cell-based;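 also: cell growth inhibition measured by a viability assay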
Description: SANGER: Inhibition of human NCI-H1155 cell growth in a cell viability assay.

NCI-H1355 = assay type: functional, cell-based;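 also: growth inhibition of human NCI-H1355 cells, read out by a cell viability assay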
Description: SANGER: Inhibition of human NCI-H1355 cell growth in a cell viability assay.

NCI-H1648 = assay type: functional, cell-based;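 also: cell viability assay measuring inhibition of NCI-H1648 cell growth, from the Sanger screening data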
Description: SANGER: Inhibition of human NCI-H1648 cell growth in a cell viability assay.

NCI-H209 = assay type: functional, cell-based;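 also: growth inhibition of human NCI-H209 cells, measured by a cell viability assay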
Description: SANGER: Inhibition of human NCI-H209 cell growth in a cell viability assay.

NCI-H510A = assay type: functional, cell-based;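 also: growth inhibition of NCI-H510A cells, read out with a cell viability assay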
Description: SANGER: Inhibition of human NCI-H510A cell growth in a cell viability assay.

NOMO-1 = assay type: functional, cell-based;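 also: growth inhibition of human NOMO-1 cells measured by a cell viability assay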
Description: SANGER: Inhibition of human NOMO-1 cell growth in a cell viability assay.

NTERA-2-cl-D1 = assay type: functional, cell-based;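 also: inhibition of cell growth, measured with a cell viability assay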
Description: SANGER: Inhibition of human NTERA-S-cl-D1 cell growth in a cell viability assay.

OMC-1 = assay type: functional, cell-based;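 also: growth inhibition of the OMC-1 cell line, measured by a cell viability assay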
Description: SANGER: Inhibition of human OMC-1 cell growth in a cell viability assay.

ONS-76 = assay type: functional, cell-based;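 also: growth inhibition of human ONS-76 cells, read out with a cell viability assay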
Description: SANGER: Inhibition of human ONS-76 cell growth in a cell viability assay.

OS-RC-2 = assay type: functional, cell-based;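 also: growth inhibition of human OS-RC-2 cells, measured by a cell viability assay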
Description: SANGER: Inhibition of human OS-RC-2 cell growth in a cell viability assay.

RPMI-8866 = assay type: functional, cell-based
Description: SANGER: Inhibition of human RPMI-8866 cell growth in a cell viability assay.

SCC-15 = assay type: functional, cell-based;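 also: growth inhibition of SCC-15 cells, read out with a cell viability assay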
Description: SANGER: Inhibition of human SCC-15 cell growth in a cell viability assay.

SF-539 = assay type: functional, cell-based;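 also: Read-out is a cell viability assay, with IC50 reflecting inhibition of cell growth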
Description: SANGER: Inhibition of human SF539 cell growth in a cell viability assay.

SJSA-1 = assay type: functional, cell-based;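 also: growth inhibition of human SJSA-1 cells, read out through a cell viability measurement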
Description: SANGER: Inhibition of human SJSA-1 cell growth in a cell viability assay.

SK-MEL-1 = assay type: functional, cell-based;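 also: growth inhibition of human SK-MEL-1 cells, read out by a cell viability assay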
Description: SANGER: Inhibition of human SK-MEL-1 cell growth in a cell viability assay.

SK-N-DZ = assay type: functional, cell-based;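 also: growth inhibition of the cancer cell line, read out through a viability assay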
Description: SANGER: Inhibition of human SK-N-DZ cell growth in a cell viability assay.

SK-N-FI = assay type: functional, cell-based;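 also: cell viability assay measuring growth inhibition of human SK-N-FI cells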
Description: SANGER: Inhibition of human SK-N-FI cell growth in a cell viability assay.

SK-NEP-1 = assay type: functional, cell-based;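 also: growth inhibition of human SK-NEP-1 cells, read out by a cell viability assay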
Description: SANGER: Inhibition of human SK-NEP-1 cell growth in a cell viability assay.

SNB-75 = assay type: functional, cell-based;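 also: cell viability assay measuring growth inhibition of human SNB-75 cells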
Description: SANGER: Inhibition of human SNB75 cell growth in a cell viability assay.

SW 962 = assay type: functional, cell-based;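 also: growth inhibition of human SW962 cells, read out by a cell viability assay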
Description: SANGER: Inhibition of human SW962 cell growth in a cell viability assay.

A3-KAW = assay type: functional, cell-based;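 also: growth inhibition of human A3-KAW cells, read out with a cell viability assay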
Description: SANGER: Inhibition of human A3-KAW cell growth in a cell viability assay.

A388 = assay type: functional, cell-based
Description: SANGER: Inhibition of human A388 cell growth in a cell viability assay.

C8166 = assay type: functional, cell-based
Description: SANGER: Inhibition of human C8166 cell growth in a cell viability assay.

TE-11 = assay type: functional, cell-based
Description: SANGER: Inhibition of human TE-11 cell growth in a cell viability assay.

TK-10 = assay type: functional, cell-based
Description: SANGER: Inhibition of human TK10 cell growth in a cell viability assay.

CAS-1 = assay type: functional, cell-based
Description: SANGER: Inhibition of human CAS-1 cell growth in a cell viability assay.

SMILES: O=c1[nH]c2ccccc2n1C1CCN(Cc2ccc(-c3nc4cc5[nH]cnc5cc4nc3-c3ccccc3)cc2)CC1
- pIC50 (CTB-1): < 5.59
- pIC50 (CTV-1): < 5.59
- pIC50 (Calu-6): < 5.59
- pIC50 (D283 Med): < 5.59
- pIC50 (D-502MG): < 5.59
- pIC50 (DMS-114): < 5.59
- pIC50 (DMS-79): < 5.59
- pIC50 (DU-4475): < 5.59
- pIC50 (EC-GI-10): < 5.59
- pIC50 (ES3): < 5.59
- pIC50 (ES5): < 5.59
- pIC50 (EW-24): < 5.59
- pIC50 (EOL1): < 5.59
- pIC50 (GCIY): < 5.59
- pIC50 (GOTO): < 5.59
- pIC50 (HCC1187): < 5.59
- pIC50 (HCE-4): < 5.59
- pIC50 (HCE-T): < 5.59
- pIC50 (HOP-62): < 5.59
- pIC50 (HuTu80): < 5.59
- pIC50 (JVM-2): < 5.59
- pIC50 (JVM-3): < 5.59
- pIC50 (KALS-1): < 5.59
- pIC50 (KARPAS-45): < 5.59
- pIC50 (KG-1): < 5.59
- pIC50 (KGN): < 5.59
- pIC50 (KINGS-1): < 5.59
- pIC50 (KLE): < 5.59
- pIC50 (KNS-42): < 5.59
- pIC50 (KP-N-YS): < 5.59
- pIC50 (KS-1): < 5.59
- pIC50 (KURAMOCHI): 5.64
- pIC50 (L-428): < 5.59
- pIC50 (LB1047-RCC): < 5.59
- pIC50 (LS-1034): < 5.59
- pIC50 (MHH-PREB-1): < 5.59
- pIC50 (ML-2): < 5.59
- pIC50 (MN-60): < 5.59
- pIC50 (MS-1): < 5.59
- pIC50 (MSTO-211H): < 5.59
- pIC50 (NCI-H1155): < 5.59
- pIC50 (NCI-H1355): < 5.59
- pIC50 (NCI-H1648): < 5.59
- pIC50 (NCI-H209): < 5.59
- pIC50 (NCI-H510A): < 5.59
- pIC50 (NOMO-1): < 5.59
- pIC50 (NTERA-2-cl-D1): < 5.59
- pIC50 (OMC-1): < 5.59
- pIC50 (ONS-76): < 5.59
- pIC50 (OS-RC-2): < 5.59
- pIC50 (RPMI-8866): < 5.59
- pIC50 (SCC-15): < 5.59
- pIC50 (SF-539): < 5.59
- pIC50 (SJSA-1): < 5.59
- pIC50 (SK-MEL-1): < 5.59
- pIC50 (SK-N-DZ): < 5.59
- pIC50 (SK-N-FI): < 5.59
- pIC50 (SK-NEP-1): < 5.59
- pIC50 (SNB-75): < 5.59
- pIC50 (SW 962): < 5.59
- pIC50 (A3-KAW): < 5.59
- pIC50 (A388): < 5.59
- pIC50 (C8166): < 5.59
- pIC50 (TE-11): < 5.59
- pIC50 (TK-10): < 5.59
- pIC50 (CAS-1): < 5.59

SMILES: Fc1cc(-c2cc[nH]/c(=N/c3ccc(-n4cnc(N5CCOCC5)n4)cc3)n2)cc(N2CCOCC2)c1
- pIC50 (CTB-1): 5.96
- pIC50 (CTV-1): 6.39
- pIC50 (Calu-6): 6.29
- pIC50 (D283 Med): 5.59
- pIC50 (D-502MG): 5.98
- pIC50 (DMS-114): < 5.29
- pIC50 (DMS-79): 5.37
- pIC50 (DU-4475): 6.24
- pIC50 (EC-GI-10): 5.65
- pIC50 (ES3): 5.96
- pIC50 (ES5): < 5.29
- pIC50 (EW-24): < 5.29
- pIC50 (EOL1): 6.30
- pIC50 (GCIY): 6.89
- pIC50 (GOTO): 6.09
- pIC50 (HCC1187): 6.23
- pIC50 (HCE-4): 6.04
- pIC50 (HCE-T): 5.55
- pIC50 (HOP-62): 6.61
- pIC50 (HuTu80): 5.37
- pIC50 (JVM-2): 5.48
- pIC50 (JVM-3): < 5.29
- pIC50 (KALS-1): 6.35
- pIC50 (KARPAS-45): 6.10
- pIC50 (KG-1): 6.32
- pIC50 (KGN): 6.64
- pIC50 (KINGS-1): < 5.29
- pIC50 (KLE): 5.74
- pIC50 (KNS-42): 5.96
- pIC50 (KP-N-YS): 6.16
- pIC50 (KS-1): 6.80
- pIC50 (KURAMOCHI): 6.22
- pIC50 (L-428): 6.19
- pIC50 (LB1047-RCC): 6.40
- pIC50 (LS-1034): 5.72
- pIC50 (MHH-PREB-1): 6.37
- pIC50 (ML-2): 6.15
- pIC50 (MN-60): 6.05
- pIC50 (MS-1): 5.58
- pIC50 (MSTO-211H): < 5.29
- pIC50 (NCI-H1155): 5.58
- pIC50 (NCI-H1355): 6.06
- pIC50 (NCI-H1648): 6.33
- pIC50 (NCI-H209): 5.90
- pIC50 (NCI-H510A): < 5.29
- pIC50 (NOMO-1): 6.33
- pIC50 (NTERA-2-cl-D1): 6.50
- pIC50 (OMC-1): 5.40
- pIC50 (ONS-76): 6.40
- pIC50 (OS-RC-2): 6.41
- pIC50 (RPMI-8866): 5.93
- pIC50 (SCC-15): 6.10
- pIC50 (SF-539): 6.17
- pIC50 (SJSA-1): 6.60
- pIC50 (SK-MEL-1): 5.88
- pIC50 (SK-N-DZ): 5.73
- pIC50 (SK-N-FI): < 5.29
- pIC50 (SK-NEP-1): 6.26
- pIC50 (SNB-75): 6.54
- pIC50 (SW 962): < 5.29
- pIC50 (A3-KAW): 6.53
- pIC50 (A388): 5.71
- pIC50 (C8166): 6.35
- pIC50 (TE-11): 5.62
- pIC50 (TK-10): 5.92
- pIC50 (CAS-1): 5.65
